Test results as given in patent US20110142884A1, “Materials and Methods for Making Improved Micelle Compositions” (The Board of Trustees of the University of Illinois, priority 2002, published 2011).
Converted amounts (≈) assume the structure as drawn. No end group written: not given here.

Tests used:
[1] = Circular dichroism (CD) spectral analysis of peptide conformation, % helicity; type: physicochemical; conditions: room temperature
Experimental: According to this example, circular dichroism (CD) experiments were performed to determine the conformation changes of VIP in phospholipid micelles, pH and temperature changes, and in aqueous solutions. CD spectra were recorded on a JASCO J-700 spectropolarimeter using a fused quartz cell of 1 cm pathlength. Spectra in 0.15 N saline (pH 6.8) and 5 mM Hepes buffer (pH 7.4) were measured at a peptide concentration of 4 μM and at a lipid concentration of 1 mM. The effects of CaM, pH (6.8 or 7.4) and temperature (25° C. or 37° C.) on VIP conformation were also studied. The conformation of VIP fragments was likewise studied. All measurements were carried out at room temperature (˜25° C.) unless otherwise noted. A bandwidth of 1.0 nm and a step resolution of 0.5 nm were used to collect an average of 9 accumulations/sample at the […] (200-260 nm wavelength). The peptide spectra shown have the background buffer scans, and empty vesicle scans subtracted and were smoothed using the noise reduction function. The temperature during spectral analysis was maintained by using a circulating water bath attached to a jacket surrounding the fused quartz CD cell. The percent helical characterization of VIP was determined by a method of Haghjoo et al., Peptide Research 9 (6):327-331 (1996): % helicity=[−(θ208+4000)/29 000]*100 and are reported in table 1.
According to the example, CD was used to determine the conformation of VIP in saline, Hepes buffer and phospholipid micelles at room temperature and at 37° C. The CD spectra analysis was performed after 13 μg of human VIP incubated with 1 ml PEG-DSPE (1 μmol) micelles for 30 min at room temperature as determined by preliminary studies. A bandwidth of 1.0 nm and a step resolution of 0.5 nm were used to collect an average of 9 accumulations/sample at near UV range (200-260 nm). The temperature was maintained during spectral analysis by a circulating water bath attached to a jacket surrounding the fused quartz CD cell. The evaluation of VIP molecule conformation in SSM by using circular dichroism was successful because the distortion caused by spherical particles was eliminate due to the small size and univesicular structure of the SSM. […] The phospholipid micelles were ideal in our study of VIP conformation since it provided a hydrophobic core similar to the phospholipid bilayer of the SSL. Moreover, both the negative charge, and the hydrophilic layer provided by the PEG mimic the conditions of our SSL and make it possible to infer the VIP conformational results.
According to this example, the method of example 4 was repeated to determine the conformation of VIP in saline and phospholipid micelles plus calmodulin (CaM). CD spectra measurements were performed after 13 μg/ml of VIP was incubated with 1.0 μmol/ml of phospholipid micelles for 30 min followed by 10^−10 M CaM incubated with VIP in phospholipid micelles for 2 h at 4° C. (conjugation paper). A bandwidth of 1.0 nm and a step resolution of 0.5 nm were used to collect the average of 9 accumulations/sample at near UV range (200-260 nm).
According to this example the method of example 4 was repeated to determine the conformation of VIP fragments in saline and phospholipid micelles. CD spectra measurements were performed after incubation of VIP fragments with phospholipid micelles, at a molar concentration equivalent to VIP (i.e. 9 μg/ml for VIP10-28 fragment and 6 μg/ml for VIP1-12 fragment), for 30 min. A bandwidth of 1.0 nm and a step resolution of 0.5 nm were used to collect the average of 9 accumulations/sample at near UV range (200-260 nm). Specifically, CD spectra of human VIP fragment (1-12) and (10-28) in the presence of phospholipid micelles are shown in FIG. 5. […] These effects correlate well with the % helicity of VIP fragments determined in saline and in the presence of phospholipids (Table 1). […]

[2] = physchem; conditions: for solubility: aqueous with cosolvent or surfactant or cyclodextrin
Experimental: Solubilization potential of both micelle compositions for a model drug was measured by HPLC after separation of the unincorporated drug.
Excess drug was removed by centrifugation and the supernatant was analyzed by HPLC. […] HPLC eluent was measured with adsorption at 254 nm.
According to this example, micelle compositions of the invention were further characterized. Particularly, the physiochemical properties of sterically stabilized micelles prepared with DSPE conjugated to molecular weight 2000, 3000, and 5000 PEG were analyzed. The critical micelle concentration (CMC) of phospholipids was determined at pH 7.4 and 25° C. using a water-insoluble fluorescent probe (1,6-diphenyl-1,3,5-hexatriene). Micellar size was determined by quasi-elastic light scattering.
The solvent was then removed by vacuum rotary evaporation under a stream of argon to form a dry film. This dry film was further dried under vacuum overnight to remove any traces of remaining solvent. The dried film was rehydrated with isotonic 0.01M HEPES buffer, pH 7.4. The solution was then flushed with argon, sealed and equilibrated for 12 h at room temperature. The unsolubilized excess paclitaxel was removed by centrifugation at 13,000 g for 5 min to obtain a clear dispersion.
The solubilization potentials of SSMM and SSM for paclitaxel were determined by RP-HPLC. The clear aqueous dispersion was diluted with methanol. 20 μl of each sample was injected at least three times into a μBondapak C-18 column, 3.9 mm×30 cm (Waters, Milford, Mass.) equipped with a C18 column guard. The column was eluted with acetonitrile/water (60:40) at 1.0 ml/min (Waters 600). Detection was by UV absorption measurement at 227 nm (Waters 490). Peak areas were calculated by interfacing the detector to an electronic integrator (Hewlett Packard). The drug concentration was calculated from standard curves.

[3] = system: second order arterioles of the hamster cheek pouch microcirculation; conditions: Séjourné et al. 1997; cited from earlier work
[4] = system: second order arterioles of the hamster cheek pouch microcirculation; experiment: Hamster cheek pouch microcirculation, arteriolar diameter during suffusion; type: in vivo
Experimental: According to this example, the vasorelaxant effects of VIP in a SSM were determined according to the following method. Specifically, adult male golden Syrian hamsters were purchased from Sasco (Omaha, Nebr.). Adult male hamsters with spontaneous hypertension and their normotensive controls were purchased from the Canadian Hybrid Farms (Halls Harbour, NS, Canada). Hypertensive animals have been identified after cross-breeding of hamsters with hereditary cardiomyopathy and normal golden Syrian hamsters. These albino animals have previously been used in our laboratory (Rubinstein et al., Biochem. Biophys. Res. Commun. 183:1117-1123 (1992); Artwohl et al., FASEB J. 10:A629 (1996)). Animals were anesthetized with pentobarbital sodium (6 mg/100 g body weight, i.p.). A tracheotomy was performed to facilitate spontaneous breathing. A femoral vein was cannulated to inject supplemental anesthesia during the experiment (2-4 mg/100 g body weight/h). Body temperature was maintained constant (37-38° C.) and monitored via heating pad and a feed back controller throughout the experiment.
The bioactivity of the VIP in SSM by diffusing it in situ was determined by visualization of the microcirculation of the hamster cheek pouch. The microcirculation of the cheek pouch was visualized locally by a method previously developed in our laboratory (Suzuki et al., Life Sci. 57:1451-1457 (1995); Suzuki et al., Am. J. Physiol. 271:R393-R397 (1996); and Suzuki et al., Am. J. Physiol. 271:H282-H287 (1996)). Briefly, the left cheek pouch was spread over a small plastic baseplate, and an incision was made in the outer skin to expose the cheek pouch membrane. The connective avascular tissue layer was removed, and a plastic chamber was placed over the baseplate and secured in place by suturing the skin around the upper chamber. This forms a triple-layered complex: the baseplate, the exposed cheek pouch membrane, and the upper chamber. After these initial procedures, the hamster is transferred to a heated microscope stage. The chamber was connected to a reservoir containing warmed bicarbonate buffer (37-38° C.) that allowed continuous suffusion of the cheek pouch. The buffer was bubbled continuously with 95% N2-5% CO2 (pH 7.4). […]
The cheek pouch microcirculation was epi-illuminated with a 100-W mercury light source and viewed through a microscope (Nikon, Tokyo, Japan) at a magnification of ×40. […] The inner-wall diameter of second order arterioles ([…]), which modulated vascular resistance in the cheek pouch, (Raud, Acta Physiol. Scand. (Suppl.) 578:1-58 (1989); Suzuki et al., Life Sci. 57:1451-1457 (1995); Suzuki et al., Am. J. Physiol. 271:R393-R397 (1996)) was measured from the video display of the microscope image using a videomicrometer (VIA 100; Boeckeler Instruments, Tucson, Ariz.). […]

[5] = system: anesthetized rats; experiment: Infusion in anesthetized rats, haemodynamics by radioactive microsphere technique; type: in vivo, rat; conditions: 50 ng/kg/min infused for 30 minutes
Experimental: According to this aspect of the invention, the effect of infusion of enthelin-1 (ET-1) alone or in a SSM formulation on mean arterial pressure (MAP), cardiac output(CO), total peripheral resistance (TPR), and regional blood circulation in anesthetized rats was examined using a radioactive microsphere technique. SSM with or without ET-1 were prepared according to the method described in Example 11 using DSPE-PEG in saline. Treatments for individual groups consisted of: (i) control, SSM at 2.7 mg/ml (n=6); (ii) ET-1 infusion at 50 ng/kg/min (n=5), and (iii) ET-1 at 50 ng/kg/min in SSM (n=8). Drugs were infused at 0.1 ml/min for 30 minutes.

Row | Compound | Conformation from CD spectrum in the presence of phospholipid micelles (SSM) [1] | % Helicity (in the presence of) Phospholipids [1] [%] | % Helicity (in the presence of) Saline [1] [%] | Conformation from CD spectrum in saline [1] | also measured
1 | NC(=O)CC[C@@H]1NC(=O)[C@H](Cc2ccccc2)NC(=O)[C@H](Cc2ccc(O)cc2)NC(=O)[C@@H](N)CSSC[C@@H](C(=O)N2CCC[C@H]2C(=O)N[C@@H](CCCN=C(N)N)C(=O)NCC(N)=O)NC(=O)[C@H](CC(N)=O)NC1=O [Vasopressin] | primarily random coil conformation | 16 | 8 | primarily random coil conformation | 
2 | C=C(C)[C@@H]1CC[C@]2(C(=O)O)CC[C@]3(C)[C@H](CC[C@@H]4[C@@]5(C)CC[C@H](O)C(C)(C)[C@@H]5CC[C@]43C)[C@@H]12 [betulinic acid] |  |  |  |  | solubility ([2]; solubility in either SSM or SSC): 250 µg/mL (≈ 547 µM)
3 | C=C(C)[C@@H]1CC[C@]2(C(=O)O)CC[C@]3(C)[C@H](CC[C@@H]4[C@@]5(C)CC[C@H](O)C(C)(C)[C@@H]5CC[C@]43C)[C@@H]12 [betullinic acid] |  |  |  |  | solubility in 10 mg/ml DSPE-PEG [2]: up to 200 μg/ml
4 | CC(=O)[C@H]1CC[C@H]2[C@@H]3CCC4=CC(=O)CC[C@]4(C)[C@H]3CC[C@]12C [progesterone] |  |  |  |  | solubility ([2]; thermodynamic from solid, solubility in 10 mg/ml DSPE-PEG): ≤ 198 µg/mL; solubility ([2]; thermodynamic from solid, solubility of progesterone in DSPE-PEG micelles): 198 ± 7 µg/mL (≈ 630 µM); solubility ([2]; thermodynamic from solid, solubility of progesterone in bile salt micelles): 21 µg/mL
5 | VIP1-12: VIP fragment 1-12 (HSDAVFTDNYTR; Vasoactive intestinal peptide; UniProt P01282 125-136, looked up, fragment) | primarily random coil structure | 0.05 | 0 | primarily random coil structure | 
6 | VIP10-28: VIP fragment 10-28, a selective VIP receptor antagonist (YTRLRKQMAVKKYLNSILN; ends and bridges not checked; UniProt P01282 134-152, looked up, fragment) | predominantly α-helix structure | 18 | 3 | primarily random coil conformation | effect on VIP in SSL response [3]: attenuated; effect on native VIP response [3]: completely abolished; effect on secretin- and secretin in SSM-induced vasodilation ([4]; VIP10-28 (50 nmol) suffused 30 min before and during secretin (5 nmol)): abrogated; effects on arteriolar diameter ([4]; suffusion of VIP10-28 alone (50 nmol)): no significant effects
7 | calmodulin [CaM] |  | 0 | 0 |  | 
8 | enthelin-1 (CSCSSLMDKECVYFCHLDIIW; ends and bridges not checked; cysteine pairing not given here; UniProt P05305 53-73, looked up) [ET-1] |  |  |  |  | Renal vascular resistance [5]: 76%; increase in TPR [5]: 102%; vascular resistance in brain [5]: 62%
9 | secretin | appreciable α-helix conformation |  |  | unordered | increase in arteriolar diameter from baseline ([4]; suffusion of 5 nmol for 7 min): 10.3±0.6%
